Measurements taken from the NIST ThermoML archive (doi:10.1021/je0400052).

Key:
[1] = refractive index (Na D-line) (dimensionless); settings: 101.33 kPa, Liquid
[2] = 101.33 kPa, Liquid
[3] = xn = mol fraction of the nth substance listed; settings: 101.3 kPa, Liquid
[4] = refractive index (Na D-line) (dimensionless); xn = mol fraction of the nth substance listed; settings: 101.3 kPa, Liquid

Cc1ccccc1C [1,2-dimethylbenzene]
Settings | mass density, [2] [kg/m3] | refractive index, [1] | viscosity, [2] [mPa·s]
303.15 K | 870.8 | 1.5001 | 0.695
313.15 K | 863.3 | 1.4981 | 0.621

Cc1cccc(C)c1 [1,3-dimethylbenzene]
Settings | mass density, [2] [kg/m3] | refractive index, [1] | viscosity, [2] [mPa·s]
303.15 K | 855.3 | 1.492 | 0.557
313.15 K | 847.1 | 1.4901 | 0.508

Cc1ccc(C)cc1 [1,4-dimethylbenzene]
Settings | mass density, [2] [kg/m3] | refractive index, [1] | viscosity, [2] [mPa·s]
303.15 K | 851.9 | 1.4911 | 0.566
313.15 K | 844 | 1.4902 | 0.517

CCOC(=O)c1ccccc1 [ethyl benzoate]
Settings | mass density, [2] [kg/m3] | refractive index, [1] | viscosity, [2] [mPa·s]
303.15 K | 1037.4 | 1.5009 | 1.748
313.15 K | 1028.5 | 1.4997 | 1.438

CCOC(=O)c1ccccc1 [ethyl benzoate] + Cc1cccc(C)c1
Settings | mass density, [3] [kg/m3] | refractive index, [4] | viscosity, [3] [mPa·s]
303.15 K, x1 = 0.0887 | 871.6 | 1.4946 | 0.612
303.15 K, x1 = 0.1713 | 887.2 | 1.4957 | 0.676
303.15 K, x1 = 0.2626 | 905.2 | 1.4964 | 0.759
303.15 K, x1 = 0.3553 | 926 | 1.497 | 0.837
303.15 K, x1 = 0.4588 | 946.8 | 1.4974 | 0.931
303.15 K, x1 = 0.5707 | 966.5 | 1.499 | 1.055
303.15 K, x1 = 0.6576 | 981.7 | 1.4995 | 1.161
303.15 K, x1 = 0.7831 | 1002.2 | 1.5003 | 1.352
303.15 K, x1 = 0.8832 | 1018.5 | 1.5011 | 1.5
313.15 K, x1 = 0.0887 | 857.3 | 1.4917 | 0.547
313.15 K, x1 = 0.1713 | 875 | 1.4925 | 0.601
313.15 K, x1 = 0.2626 | 895.5 | 1.4939 | 0.664
313.15 K, x1 = 0.3553 | 917.5 | 1.4955 | 0.732
313.15 K, x1 = 0.4588 | 937.2 | 1.4963 | 0.809
313.15 K, x1 = 0.5707 | 966.5 | 1.4979 | 0.91
313.15 K, x1 = 0.6576 | 971.7 | 1.4984 | 0.997
313.15 K, x1 = 0.7831 | 993.7 | 1.4988 | 1.146
313.15 K, x1 = 0.8832 | 1009.8 | 1.4993 | 1.274

CCOC(=O)c1ccccc1 [ethyl benzoate] + Cc1ccccc1C
Settings | mass density, [3] [kg/m3] | refractive index, [4] | viscosity, [3] [mPa·s]
303.15 K, x1 = 0.0847 | 887.3 | 1.4994 | 0.758
303.15 K, x1 = 0.1749 | 904.2 | 1.4996 | 0.837
303.15 K, x1 = 0.2686 | 920.9 | 1.4999 | 0.909
303.15 K, x1 = 0.3579 | 937.5 | 1.5001 | 1
303.15 K, x1 = 0.4613 | 954 | 1.5007 | 1.085
303.15 K, x1 = 0.56 | 972.3 | 1.5009 | 1.19
303.15 K, x1 = 0.6668 | 988.1 | 1.501 | 1.312
303.15 K, x1 = 0.7675 | 1001.3 | 1.5011 | 1.433
303.15 K, x1 = 0.8768 | 1021.1 | 1.5013 | 1.566
313.15 K, x1 = 0.0847 | 879.3 | 1.4983 | 0.676
313.15 K, x1 = 0.1749 | 896.1 | 1.4986 | 0.732
313.15 K, x1 = 0.2686 | 913.1 | 1.4989 | 0.8
313.15 K, x1 = 0.3579 | 930.2 | 1.4993 | 0.864
313.15 K, x1 = 0.4613 | 945.7 | 1.4995 | 0.937
313.15 K, x1 = 0.56 | 963.8 | 1.4997 | 1.015
313.15 K, x1 = 0.6668 | 980.8 | 1.4999 | 1.113
313.15 K, x1 = 0.7675 | 992.7 | 1.5001 | 1.208
313.15 K, x1 = 0.8768 | 1010.9 | 1.5003 | 1.31

CCOC=O [ethyl methanoate] + CCc1ccccc1
Settings | mass density, [3] [kg/m3] | refractive index, [4] | viscosity, [3] [mPa·s]
303.15 K, x1 = 0.1478 | 862.2 | 1.4809 | 0.558
303.15 K, x1 = 0.2728 | 869.9 | 1.4691 | 0.527
303.15 K, x1 = 0.3884 | 871.2 | 1.4568 | 0.499
303.15 K, x1 = 0.4978 | 876.3 | 1.4431 | 0.473
303.15 K, x1 = 0.6 | 881.8 | 1.4286 | 0.45
303.15 K, x1 = 0.6925 | 886.6 | 1.4157 | 0.43
303.15 K, x1 = 0.7768 | 891 | 1.4058 | 0.413
303.15 K, x1 = 0.851 | 896.6 | 1.3938 | 0.397
303.15 K, x1 = 0.9309 | 903.7 | 1.3709 | 0.38
313.15 K, x1 = 0.1478 | 853.7 | 1.4791 | 0.502
313.15 K, x1 = 0.2728 | 857.7 | 1.4682 | 0.476
313.15 K, x1 = 0.3884 | 861.8 | 1.4532 | 0.452
313.15 K, x1 = 0.4978 | 866.3 | 1.4415 | 0.42
313.15 K, x1 = 0.6 | 873.2 | 1.4269 | 0.409
313.15 K, x1 = 0.6925 | 875.9 | 1.4142 | 0.391
313.15 K, x1 = 0.7768 | 880 | 1.4042 | 0.376
313.15 K, x1 = 0.851 | 885.1 | 1.3921 | 0.363
313.15 K, x1 = 0.9309 | 891.7 | 1.3695 | 0.351
